These are literature values, as cited in US20220127231A1, “PROCESS FOR THE PREPARTION OF AMIFAMPRIDINE PHOSPHATE” (SHILPA MEDICARE LTD, priority 2020, published 2022).

Molecules are shown by their SMILES.

For data set [1] the following is noted: 1% solution in water at 25° C.

Turning to `Nc1ccncc1N` [Amifampridine phosphate], the “solubility in dimethyl sulfoxide” value (dimethyl sulfoxide) was “slightly soluble”. Further, the solubility in dimethylformamide entry (dimethylformamide) is on record as “very slightly soluble”. In addition, the solubility in ethanol entry (ethanol) is “very slightly soluble”. For the same compound, the “solubility in glacial acetic acid” value (glacial acetic acid) is reported as “slightly soluble”. Also, the solubility in methanol entry (methanol) is on record as “slightly soluble”. Moreover, for the setting “water”, the solubility in water entry was “practically soluble”. In addition, in data set [1], the “pH of 1% solution in water” value is reported as 4.6±0.2.
